Several values for one entry are separate records, joined by “and”; a condition that tells them apart may be missing. Equal values may be shown once. Entries after “also recorded” stand apart in the source; their conditions may differ.
What was measured:
PDE2A = details: cited from earlier work; for IC50: Figure 1
PDE10A = system: PDE10A; set-up: method as in PMID 27213312, PMID 26016549, PMID 29498659; details: Figure 1; cited from earlier work
[1] = Incubation with mouse liver microsomes, HPLC-UV-MS
Experimental: After protein precipitation by addition of acetonitrile and subsequent centrifugation, the supernatant was examined by HPLC-UV-MS.
Analogously, preincubated NADPH (2 mM) was added, and the mixtures were gently shaken at 37 °C. After 90 min, portions of 1.0 mL of cold acetonitrile (−20 °C) were added, respectively, followed by vigorous shaking (30 s), cooling on ice (4 min), and centrifugation at 14,000 rpm (10 min). Supernatants were concentrated at 50 °C under a flow of nitrogen to provide residual volumes of 40–60 µL, which were reconditioned by adding acetonitrile/water 1:1 (v/v) to obtain samples of 100 µL, which were stored at 4 °C until analyzed by HPLC-UV-MS.
HPLC-UV-MS analyses were performed on a ReproSil-Pur 120 C18-AQ-column, 125 mm × 3 mm, 3 µm (Dr. Maisch GmbH, Ammerbuch, Germany) equipped with an appropriate precolumn at 25 °C and a flow rate of 0.7 mL/min. The solvent system consisted of Eluent A: water, containing 2 mM ammonium acetate, and Eluent B: water/acetonitrile 20/80 (v/v), containing 2 mM ammonium acetate. Two methods were applied. Method A (gradient elution, % acetonitrile): 0–1.5 min, 10%; 1.5–10 min, 10–80%; 10-13 min, 80%; 13–16 min 10%. Method B (isocratic elution, % acetonitrile): 0–25 min, 42%. […] MSQ Plus single quadrupole mass spectrometer was operated in positive electrospray ionization mode: probe temperature 500 °C, needle voltage 5 V, cone voltage 75 V.

PDE9A1 = molecular target: T1, PDE9A1 (Homo sapiens, UniProt O76083); test: PDE9A1 radiometric enzyme inhibition assay; format: biochemical; details: compound at 1 µM; read-out: Inhibition of PDE Sub-Types (%) 9A1
T1 construct: purchased SB Drug Discovery (Scotland, U.K.); host or cells: baculoviral system

human PDE2A3 [2] = molecular target: T2, human PDE2A3 (Homo sapiens, UniProt O00408); test: PDE2A3 radiometric enzyme inhibition assay; details: for Inhibition of PDE Sub-Types (%) 2A3: compound at 10 nM; for Selectivity Ratio (PDE10A/PDE2A): ratio of IC50 PDE10A to IC50 PDE2A, fold
Experimental: (§1) The phosphodiesterase assays were performed using recombinant human PDE enzymes expressed in a baculoviral system. […] The radiometric assay was a modification of the two-step method of Thompson and Appleman [45], which was adapted for 96-well plate format.
(§2) Firstly, tritium-labeled cyclic AMP or cyclic GMP was hydrolyzed to 5′-AMP or 5′-GMP by phosphodiesterase. The 5′-AMP or 5′-GMP was then further hydrolyzed to adenosine or guanosine by nucleotidase in snake venom. An anion-exchange resin bound all charged nucleotides and left [^3H]adenosine or [^3H]guanosine as the only labeled compound to be counted by liquid scintillation. Briefly, 50 µL of diluted human PDE enzyme were incubated with 50 µL of [^3H]-cAMP or [^3H]-cGMP and 11 µL of 50% DMSO (or compound dilution) for 20 min (at 30 °C). Reactions were carried out in a Greiner 96-deep well 1-mL master-block. The enzyme was diluted in 20 mM Tris HCl pH 7.4 and [^3H]-cAMP or [^3H]-cGMP are diluted in 10 mM MgCl2, 40 mM Tris HCl pH 7.4. The reaction is terminated by denaturing the PDE enzyme (at 70 °C for 2 min), after which 25 µL of snake venom nucleotidase were added and incubated for 10 min (at 30 °C). Plates were centrifuged for 9 seconds before incubation. After incubation, 200 µL of Dowex resin were added, and the plate was shaken for 20 min then centrifuged for 3 min at 2500 r.p.m. Fifty microliters of supernatant were removed and added to 200 µL of MicroScint-20 in white plates (Greiner 96-well Optiplate) and shaken for 30 min before reading on a Perkin Elmer TopCount Scintillation Counter.
(§3) Compounds were tested at a concentration of 10 nM against human PDE2A3 and at 1 µM for PDE4A1, PDE5A, PDE6AB, PDE9A1, and PDE10A1. The percentage of inhibition of the compounds and standard inhibitors was determined and compared to historical assay data to ensure that they fell within acceptable ranges.

PDE5A1 = molecular target: T3, PDE5A1 (Homo sapiens, UniProt O76074); test: PDE5A1 radiometric enzyme inhibition assay; format: biochemical; details: compound at 1 µM; read-out: Inhibition of PDE Sub-Types (%) 5A1
T3 construct: purchased SB Drug Discovery (Scotland, U.K.); host or cells: baculoviral system

PDE10A1 [3] = molecular target: T4, PDE10A1 (Homo sapiens, UniProt Q9Y233); test: PDE10A1 radiometric enzyme inhibition assay; details: for Inhibition of PDE Sub-Types (%) 10A1: compound at 1 µM
Experimental: as §1, §2, §3

PDE4A1 = molecular target: T5, PDE4A1 (Homo sapiens, UniProt P27815); test: PDE4A1 radiometric enzyme inhibition assay; format: biochemical; details: compound at 1 µM; read-out: Inhibition of PDE Sub-Types (%) 4A1
T5 construct: purchased SB Drug Discovery (Scotland, U.K.); host or cells: baculoviral system

human PDE2A3 [4] = molecular target: T2, human PDE2A3; test: biochemical
Experimental: as §1, §2, §3

PDE10A1 [5] = molecular target: T4, PDE10A1; test: biochemical
Experimental: as §1, §2, §3

PDE1A3 = molecular target: T6, PDE1A3 (Homo sapiens, UniProt P54750); test: PDE1A3 radiometric enzyme inhibition assay; format: biochemical; details: measured at 1 µM
T6 construct: purchased SB Drug Discovery (Scotland, U.K.); host or cells: baculoviral system

PDE8A1 = molecular target: T7, PDE8A1 (Homo sapiens, UniProt O60658); test: PDE8A1 radiometric enzyme inhibition assay; format: biochemical; details: measured at 1 µM
T7 construct: purchased SB Drug Discovery (Scotland, U.K.); host or cells: baculoviral system

PDE3A = molecular target: T8, PDE3A (Homo sapiens, UniProt Q14432); test: PDE3A radiometric enzyme inhibition assay; format: biochemical; details: measured at 1 µM
T8 construct: purchased SB Drug Discovery (Scotland, U.K.); host or cells: baculoviral system

PDE11A = molecular target: T9, PDE11A (Homo sapiens, UniProt Q9HCR9); test: PDE11A radiometric enzyme inhibition assay; format: biochemical; details: measured at 1 µM
T9 construct: purchased SB Drug Discovery (Scotland, U.K.); host or cells: baculoviral system

PDE6AB = molecular target: T10, PDE6AB (Homo sapiens, UniProt P16499+P35913); test: PDE6AB radiometric enzyme inhibition assay; format: biochemical; details: measured at 1 µM
T10 construct: purchased SB Drug Discovery (Scotland, U.K.); host or cells: baculoviral system

PDE7A = molecular target: T11, PDE7A (Homo sapiens, UniProt Q13946); test: PDE7A radiometric enzyme inhibition assay; format: biochemical; details: measured at 1 µM
T11 construct: purchased SB Drug Discovery (Scotland, U.K.); host or cells: baculoviral system

T1 sequence (O76083 whole entry): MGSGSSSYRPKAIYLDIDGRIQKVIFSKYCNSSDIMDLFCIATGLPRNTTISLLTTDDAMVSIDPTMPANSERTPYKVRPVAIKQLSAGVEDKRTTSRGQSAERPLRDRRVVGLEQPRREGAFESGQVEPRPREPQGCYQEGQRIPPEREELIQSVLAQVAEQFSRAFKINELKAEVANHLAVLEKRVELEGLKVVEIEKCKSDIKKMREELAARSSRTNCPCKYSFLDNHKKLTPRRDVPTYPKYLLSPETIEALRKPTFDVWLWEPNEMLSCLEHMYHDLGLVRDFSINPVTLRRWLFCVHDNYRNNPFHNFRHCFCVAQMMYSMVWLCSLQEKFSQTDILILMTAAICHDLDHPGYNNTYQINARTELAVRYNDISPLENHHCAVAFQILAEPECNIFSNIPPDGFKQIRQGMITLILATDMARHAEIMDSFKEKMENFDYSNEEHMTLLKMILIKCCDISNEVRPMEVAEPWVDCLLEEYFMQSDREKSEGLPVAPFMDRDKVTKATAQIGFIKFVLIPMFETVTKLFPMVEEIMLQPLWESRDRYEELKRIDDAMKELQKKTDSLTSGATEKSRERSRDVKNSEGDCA
T5 sequence (P27815 1-647 isoform P27815-4): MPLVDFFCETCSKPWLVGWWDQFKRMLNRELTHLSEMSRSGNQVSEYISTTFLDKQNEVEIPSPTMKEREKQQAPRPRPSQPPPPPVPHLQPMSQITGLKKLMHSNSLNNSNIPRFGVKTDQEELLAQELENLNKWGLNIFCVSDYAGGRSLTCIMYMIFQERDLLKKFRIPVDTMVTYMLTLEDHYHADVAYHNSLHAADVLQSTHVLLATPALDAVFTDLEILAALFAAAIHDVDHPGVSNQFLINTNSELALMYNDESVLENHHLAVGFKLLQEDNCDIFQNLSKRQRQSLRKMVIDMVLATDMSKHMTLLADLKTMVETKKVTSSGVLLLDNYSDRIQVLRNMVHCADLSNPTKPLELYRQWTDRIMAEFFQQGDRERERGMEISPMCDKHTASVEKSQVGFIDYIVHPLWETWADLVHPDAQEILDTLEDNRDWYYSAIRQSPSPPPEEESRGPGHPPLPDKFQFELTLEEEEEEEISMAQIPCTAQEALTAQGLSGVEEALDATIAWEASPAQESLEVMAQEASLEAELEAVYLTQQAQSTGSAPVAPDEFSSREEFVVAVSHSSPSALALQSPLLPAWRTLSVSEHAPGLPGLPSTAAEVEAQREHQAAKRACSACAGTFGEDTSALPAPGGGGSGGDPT
T2 sequence (O00408 whole entry): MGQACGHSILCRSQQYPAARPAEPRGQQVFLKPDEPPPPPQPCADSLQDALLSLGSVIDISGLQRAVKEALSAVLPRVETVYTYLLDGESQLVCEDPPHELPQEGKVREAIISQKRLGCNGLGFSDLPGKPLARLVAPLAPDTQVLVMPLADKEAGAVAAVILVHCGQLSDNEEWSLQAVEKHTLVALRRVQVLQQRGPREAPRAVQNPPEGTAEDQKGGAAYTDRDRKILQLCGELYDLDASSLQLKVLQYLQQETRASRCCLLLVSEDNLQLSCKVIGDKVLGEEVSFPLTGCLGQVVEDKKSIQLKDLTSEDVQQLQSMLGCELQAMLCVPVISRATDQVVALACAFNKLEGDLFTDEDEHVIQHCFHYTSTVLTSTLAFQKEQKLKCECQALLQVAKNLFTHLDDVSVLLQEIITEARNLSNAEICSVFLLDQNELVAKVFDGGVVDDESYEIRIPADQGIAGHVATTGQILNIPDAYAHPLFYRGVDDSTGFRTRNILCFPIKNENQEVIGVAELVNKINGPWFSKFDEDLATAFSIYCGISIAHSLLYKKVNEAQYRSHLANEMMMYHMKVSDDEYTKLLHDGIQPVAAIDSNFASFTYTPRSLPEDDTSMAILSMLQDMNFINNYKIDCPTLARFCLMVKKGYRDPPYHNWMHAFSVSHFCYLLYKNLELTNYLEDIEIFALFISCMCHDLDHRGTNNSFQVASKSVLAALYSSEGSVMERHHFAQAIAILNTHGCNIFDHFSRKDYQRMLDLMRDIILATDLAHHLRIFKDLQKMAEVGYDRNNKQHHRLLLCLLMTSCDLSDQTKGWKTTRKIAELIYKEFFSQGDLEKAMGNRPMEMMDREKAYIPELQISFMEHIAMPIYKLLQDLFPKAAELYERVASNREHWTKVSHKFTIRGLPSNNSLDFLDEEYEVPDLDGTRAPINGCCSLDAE
T4 sequence (Q9Y233 1-779 isoform Q9Y233-1): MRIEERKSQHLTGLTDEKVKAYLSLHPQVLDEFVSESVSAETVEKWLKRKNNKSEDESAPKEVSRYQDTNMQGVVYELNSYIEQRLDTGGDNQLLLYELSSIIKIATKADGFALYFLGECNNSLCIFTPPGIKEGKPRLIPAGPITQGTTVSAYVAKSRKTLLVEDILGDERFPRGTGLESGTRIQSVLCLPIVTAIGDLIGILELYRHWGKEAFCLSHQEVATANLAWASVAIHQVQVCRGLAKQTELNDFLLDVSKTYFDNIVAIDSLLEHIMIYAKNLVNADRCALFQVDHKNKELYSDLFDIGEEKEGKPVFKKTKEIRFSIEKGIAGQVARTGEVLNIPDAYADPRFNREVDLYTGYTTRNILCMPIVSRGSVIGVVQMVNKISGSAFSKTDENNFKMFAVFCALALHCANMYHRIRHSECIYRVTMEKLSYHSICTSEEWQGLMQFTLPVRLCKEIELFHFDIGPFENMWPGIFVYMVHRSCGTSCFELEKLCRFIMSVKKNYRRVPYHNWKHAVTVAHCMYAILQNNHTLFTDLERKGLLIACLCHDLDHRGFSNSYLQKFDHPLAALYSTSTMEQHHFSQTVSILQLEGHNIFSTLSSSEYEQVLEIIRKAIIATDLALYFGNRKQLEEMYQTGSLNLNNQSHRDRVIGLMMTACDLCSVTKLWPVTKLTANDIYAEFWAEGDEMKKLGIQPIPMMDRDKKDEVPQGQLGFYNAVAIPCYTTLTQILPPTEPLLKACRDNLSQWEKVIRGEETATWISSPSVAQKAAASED
T6 sequence (P54750 whole entry): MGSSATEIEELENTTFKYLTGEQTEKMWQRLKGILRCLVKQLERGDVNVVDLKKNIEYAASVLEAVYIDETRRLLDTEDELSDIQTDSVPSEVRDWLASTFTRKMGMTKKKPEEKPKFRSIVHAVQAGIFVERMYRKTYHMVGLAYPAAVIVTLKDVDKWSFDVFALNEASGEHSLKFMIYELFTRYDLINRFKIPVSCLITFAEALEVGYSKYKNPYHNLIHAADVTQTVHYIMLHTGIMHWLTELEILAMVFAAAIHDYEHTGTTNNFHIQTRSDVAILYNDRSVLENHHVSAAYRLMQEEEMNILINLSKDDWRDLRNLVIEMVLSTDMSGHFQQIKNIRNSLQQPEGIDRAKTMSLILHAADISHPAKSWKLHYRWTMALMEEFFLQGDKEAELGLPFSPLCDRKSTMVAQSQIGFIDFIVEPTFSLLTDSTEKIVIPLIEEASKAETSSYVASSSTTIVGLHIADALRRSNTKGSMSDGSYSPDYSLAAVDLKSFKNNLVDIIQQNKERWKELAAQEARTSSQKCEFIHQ
T8 sequence (Q14432 whole entry): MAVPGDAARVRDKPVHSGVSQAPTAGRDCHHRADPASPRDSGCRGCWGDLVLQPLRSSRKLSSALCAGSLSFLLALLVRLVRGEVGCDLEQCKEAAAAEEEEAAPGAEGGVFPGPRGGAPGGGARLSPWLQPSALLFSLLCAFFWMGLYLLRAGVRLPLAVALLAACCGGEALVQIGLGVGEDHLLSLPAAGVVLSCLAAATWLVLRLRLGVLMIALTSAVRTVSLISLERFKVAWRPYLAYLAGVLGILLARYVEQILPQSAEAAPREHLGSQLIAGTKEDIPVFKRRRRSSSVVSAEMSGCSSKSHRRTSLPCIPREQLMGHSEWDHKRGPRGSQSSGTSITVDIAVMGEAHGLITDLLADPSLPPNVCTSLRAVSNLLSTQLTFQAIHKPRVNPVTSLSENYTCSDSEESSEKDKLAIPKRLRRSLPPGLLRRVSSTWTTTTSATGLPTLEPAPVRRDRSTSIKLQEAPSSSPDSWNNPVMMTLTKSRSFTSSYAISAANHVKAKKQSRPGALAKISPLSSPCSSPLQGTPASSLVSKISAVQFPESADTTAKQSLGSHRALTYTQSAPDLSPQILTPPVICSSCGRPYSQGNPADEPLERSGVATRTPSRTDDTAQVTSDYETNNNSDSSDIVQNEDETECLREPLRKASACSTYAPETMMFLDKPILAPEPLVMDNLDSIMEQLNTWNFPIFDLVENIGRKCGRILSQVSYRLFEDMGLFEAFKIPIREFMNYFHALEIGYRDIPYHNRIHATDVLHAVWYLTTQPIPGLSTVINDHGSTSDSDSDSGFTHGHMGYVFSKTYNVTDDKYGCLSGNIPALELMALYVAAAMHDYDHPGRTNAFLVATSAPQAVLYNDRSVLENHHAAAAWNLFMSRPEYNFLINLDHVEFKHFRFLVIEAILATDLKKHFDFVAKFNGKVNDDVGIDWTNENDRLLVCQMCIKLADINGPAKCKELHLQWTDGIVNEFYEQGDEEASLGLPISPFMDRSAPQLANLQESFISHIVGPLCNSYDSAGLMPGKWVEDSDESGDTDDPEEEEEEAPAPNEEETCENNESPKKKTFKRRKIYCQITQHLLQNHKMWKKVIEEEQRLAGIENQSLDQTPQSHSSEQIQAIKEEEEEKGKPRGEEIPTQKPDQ

SMILES	IC50 (PDE2A) [nM]	IC50 (PDE10A) [nM]	inhibition at 1 µM (PDE9A1) [%]	Inhibition of PDE Sub-Types (%) 2A3 (human PDE2A3 [2])	inhibition at 1 µM (PDE5A1) [%]	Inhibition of PDE Sub-Types (%) 10A1 (PDE10A1 [3]) [%]	inhibition at 1 µM (PDE4A1) [%]	further results
COc1ccc2nnc3c(C)nc(-c4cc(OCCCF)ccc4F)n3c2n1 [TA3]	11.4	318						Selectivity for PDE2A over PDE10A (PDE2A): 28 fold
C[C@]12CC[C@H]3[C@@H](CCC4=CC(=O)CC[C@@]43C)[C@@H]1CC[C@@H]2O [testosterone, reference compound]								Conversion of positive control substrate ([1]; MLM with NADPH, confirmed by HPLC): complete conversion
Cc1nc(-c2cc(OCC3(C)COC3)ccc2Cl)n2c1nnc1ccc(-c3ccnc(F)c3)cc12 [BIT3, 1-(2-Chloro-5-((3-methyloxetan-3-yl)methoxy)phenyl)-8-(2-fluoropyridin-4-yl)-3-methylbenzo[e]imidazo[5,1-c][1,2,4]triazine]			< 0	13.2%	< 0	28.2	72.7	
COc1ccc(Cl)c(-c2nc(C)c3nnc4ccc(-c5cncc(F)c5)cc4n23)c1 [BIT7, 1-(2-Chloro-5-methoxyphenyl)-8-(3-fluoropyridin-5-yl)-3 methylbenzo[e]imidazo[5,1-c][1,2,4]triazine]			11.5		25.1	87.0	65.7	
COc1ccc(Cc2nn3c([C@H](CCCc4ccccc4)[C@H](C)O)nc(C)c3c(=O)[nH]2)cc1OC [BAY 60-7550]	4.7							
COc1ccc2nnc3c(C)nc(-c4cc(OCCCCF)ccc4F)n3c2n1 [TA4]	7.3	913						Selectivity for PDE2A over PDE10A (PDE2A): 125 fold
COc1ccc(F)c(-c2nc(C)c3nnc4ccc(-c5ccncc5)cc4n23)c1 [BIT9, 1-(2-Fluoro-5-methoxyphenyl)-3-methyl-8-(pyridin-4-yl)benzo[e]imidazo[5,1-c][1,2,4]triazine]			17.5	80.5%	57.7	96.6	86.8	IC50 (human PDE2A3 [4]): 17.7 nM; Selectivity Ratio (PDE10A/PDE2A) (human PDE2A3 [2]): 1.1; IC50 (PDE10A1 [5]): 20.2 nM
COc1ccc(F)c(-c2nc(C)c3nnc4ccc(-c5ccnc(F)c5)cc4n23)c1 [BIT6, 1-(2-Fluoro-5-methoxyphenyl)-8-(2-fluoropyridin-4-yl)-3-methylbenzo[e]imidazo[5,1-c][1,2,4]triazine]			28.4		13.6	74.0	54.2	IC50 (human PDE2A3 [4]): 65.1 nM; Inhibition of PDE Sub-Types (%) 2A3 (human PDE2A3 [2]; 0.01 µM): 56% and 56.6%; Selectivity Ratio (PDE10A/PDE2A) (human PDE2A3 [2]): 2.5; IC50 (PDE10A1 [5]): 168 nM
CCCCOc1ccc(F)c(-c2nc(C)c3nnc4ccc(OCCF)nc4n23)c1 [TA5]		> 1000						
COc1cc(Br)cc2c1nc(C)c1c(C)nc(-c3ccc(F)nc3)n12 [AQ28A]	> 1000	2.95						
COc1ccc(Cl)c(-c2nc(C)c3nnc4ccc(-c5ccnc(F)c5)cc4n23)c1 [BIT1, 1-(2-Chloro-5-methoxyphenyl)-8-(2-fluoropyridin-4-yl)-3methylbenzo[e]imidazo[5,1-c][1,2,4]triazine]			< 0		29.3		58.6	inhibition at 1 µM (PDE1A3): 12.6%; inhibition at 1 µM (PDE8A1): 23.3%; inhibition at 1 µM (PDE3A): 20%; inhibition at 1 µM (PDE11A): 14.5%; inhibition at 1 µM (PDE6AB): 16.8%; Metabolic stability in vitro ([1]; MLM 1 mg/mL, NADPH 2 mM, 20 µM compound, 37 °C, 90 min): unchanged BIT1 could still be detected in high amounts; also recorded: considerable metabolic stability; also recorded: sufficiently stable; inhibition at 1 µM (PDE7A): 16.4%
COc1ccc(F)c(-c2nc(C)c3nnc4ccc(-c5cccnc5)cc4n23)c1 [BIT8, 1-(2-Fluoro-5-methoxyphenyl)-3-methyl-8-(pyridin-3-yl)benzo[e]imidazo[5,1-c][1,2,4]triazine]			< 0	NI (NI: No Inhibition)	36.2	55.5	13.9	
COc1ccc(Cl)c(-c2nc(C)c3nnc4ccc(-c5ccc(F)nc5)cc4n23)c1 [BIT4, 1-(2-Chloro-5-methoxyphenyl)-8-(6-fluoropyridin-3-yl)-3 methylbenzo[e]imidazo[5,1-c][1,2,4]triazine]			< 0	2.63%	< 0	10.8	< 0	Selectivity over PDE10A compared to BIT7 (PDE10A1 [3]): eight
COc1ccc(Cl)c(-c2nc(C)c3nnc4c(OC)cc(F)cc4n23)c1 [II]	108	2.45						
Cc1nc(-c2cc(OCC3(C)COC3)ccc2Cl)n2c1nnc1ccc(-c3ccc(F)nc3)cc12 [BIT2, 1-(2-Chloro-5-((3-methyloxetan-3-yl)methoxy)phenyl)-8-(6-fluoropyridin-3-yl)-3-methylbenzo[e]imidazo[5,1-c][1,2,4]triazine]			< 0	8.52%	< 0	2.46	64.1	
COc1ccc(Cl)c(-c2nc(C)c3nnc4ccc(-c5cccnc5F)cc4n23)c1 [BIT5, 1-(2-Chloro-5-methoxyphenyl)-8-(2-fluoropyridin-3-yl)-3 methylbenzo[e]imidazo[5,1-c][1,2,4]triazine]			< 0	NI (NI: No Inhibition)	< 0	22.1	< 0	Selectivity over PDE10A compared to BIT7 (PDE10A1 [3]): four
COc1ccc(Cl)c(-c2nc(C)c3nnc4ccc(F)cc4n23)c1 [III]	20.1	183						
CCCCOc1ccc(F)c(-c2nc(C)c3nnc4ccc(OC)nc4n23)c1 [TA1, reference compound]			< 0		3.08		24.9	
